Data on three compounds can be found in ChEMBL document CHEMBL1201862, “PubChem BioAssay data set” (2004).

A word on the IC50: it is the concentration that inhibits the measured activity by half.

Calls of active or inactive are those of the source. Cut-off read from the data, not from the text of the source: actives have a measured IC50 and inactives only a lower limit.

Chain of Envelope glycoprotein gp160 (Q6QLK5 whole entry, the tested form may be a part): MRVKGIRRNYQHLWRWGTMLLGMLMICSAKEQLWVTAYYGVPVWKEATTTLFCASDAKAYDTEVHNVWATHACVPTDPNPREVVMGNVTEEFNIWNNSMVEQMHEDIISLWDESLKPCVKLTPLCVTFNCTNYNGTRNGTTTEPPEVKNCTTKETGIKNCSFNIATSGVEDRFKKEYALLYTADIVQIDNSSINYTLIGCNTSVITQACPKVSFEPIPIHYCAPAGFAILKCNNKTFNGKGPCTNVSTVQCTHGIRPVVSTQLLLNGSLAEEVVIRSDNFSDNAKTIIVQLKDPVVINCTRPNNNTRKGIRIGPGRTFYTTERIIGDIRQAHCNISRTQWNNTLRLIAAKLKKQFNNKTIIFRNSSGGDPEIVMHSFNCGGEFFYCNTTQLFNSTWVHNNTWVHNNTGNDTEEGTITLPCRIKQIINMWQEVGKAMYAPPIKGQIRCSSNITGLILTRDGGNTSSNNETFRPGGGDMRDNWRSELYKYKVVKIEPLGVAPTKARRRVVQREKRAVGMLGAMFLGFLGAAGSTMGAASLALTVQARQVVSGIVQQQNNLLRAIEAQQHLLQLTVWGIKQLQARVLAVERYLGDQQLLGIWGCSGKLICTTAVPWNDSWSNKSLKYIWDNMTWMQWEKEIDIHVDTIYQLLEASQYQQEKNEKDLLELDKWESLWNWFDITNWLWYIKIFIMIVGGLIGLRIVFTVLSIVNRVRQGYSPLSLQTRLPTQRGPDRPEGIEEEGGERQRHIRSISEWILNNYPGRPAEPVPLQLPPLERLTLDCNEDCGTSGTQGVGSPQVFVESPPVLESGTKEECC

The experiment has as its target Envelope glycoprotein gp160 (Human immunodeficiency virus 1, UniProt Q6QLK5). The experiment is described as follows: inhibitors of HIV fusion peptide binding, primary screen, biochemical, uHTS, fluorescence dequenching (AID 1986).
As for `O=C1NC(=O)/C(=C/c2ccc(-c3cc(C(=O)O)ccc3Cl)o2)S1`, the half-maximal inhibitory concentration (IC50) was 25.8 µM (active). Consider `COCCN1C(=O)/C(=C/c2ccc(OCc3ccc(C(=O)O)cc3)c(OC)c2)S/C1=N\c1ccccc1`, for which the half-inhibitory concentration (IC50) is 15.1 µM (active).

`CC(C(=O)Nc1ccc(O)c(C(=O)O)c1)N1C(=O)/C(=C/c2cccs2)SC1=S` (stereo not drawn): the half-inhibitory concentration (IC50) is 18.8 µM (active).
